One assay has as its system KMS-12-PE Bcl-2 G101V. The assay is described as follows: In vitro cytotoxicity CellTiter-Glo 48 h, KMS-12-PE Bcl-2 G101V. In kind it is cell-based. The following applies: for Ratio (G101V/WT): C50 KMS-12-PE Bcl-2 G101V over C50 KMS-12-PE Bcl-2 WT; for IC50: Homo sapiens, KMS-12-PE, 48 h, CellTiter-Glo, C50 = concentration needed to reach 50% of the cellular viability. Summed up:
(§1)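 Transduce KMS-12-PE with Bcl-2 WT or G101V lentivirus, then FACS-sort RFP-positive cells. Add compounds in an 11-point dilution series and incubate 48 h at 37 °C. Measure ATP-based luminescence with CellTiter-Glo and derive C50 (50% viability).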
(In general: ATP-based viability assays read luminescence as a measure of living cells.)

In a further assay the target is BCL2 WT (Homo sapiens (Human), UniProt P10415). Nature of the assay: TR-FRET competitive binding assay, BCL2 WT. As to conditions: Ki determined from IC50, read-out: TR_FRET EKI_Bcl2 WT. Summed up: (§2)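 Competitive TR-FRET displacement of fluorescein-PUMA peptide (2 or 20 nM) from 0.5 nM terbium-labelled N-terminal Halo-fusion BCL2 (1-207, wild type or mutant) or BCLXL (2-196), expressed in E. coli. Buffer 50 mM Hepes pH 7.5, 150 mM NaCl, 5% DMSO; 2 h at 23°C. 520/495 nm ratio fitted over 11 points for IC50, converted to Ki.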
(In general: Time-resolved FRET reads energy transfer from a long-lived donor to a nearby acceptor.)

Assay [1] deals with BCL2 G101V (Homo sapiens, UniProt P10415, G101V). Nature of the assay: TR-FRET competitive binding assay, BCL2 G101V. The following applies: BCL2 G101V; Ki determined from IC50; read-out: TR_FRET EKI_Bcl2 G101V. Summed up:
as §2

The test system of assay [2] is BCL2 G101V. Nature of the assay: TR-FRET competitive binding assay, BCL2 G101V. Set-up: species or system human. As to conditions: ratio Ki BCL2 G101V / Ki BCL2 WT. In a few lines: as §2
The next assay deals with BCL2 D103Y (Homo sapiens, UniProt P10415, D103Y). The assay is described as follows: TR-FRET competitive binding assay, BCL2 D103Y. As to conditions: Ki determined from IC50, read-out: TR_FRET EKI_Bcl2 D103Y. In a few lines: as §2
The next assay relates to KMS-12-PE Bcl-2 WT. The assay is described as follows: In vitro cytotoxicity CellTiter-Glo 48 h, KMS-12-PE Bcl-2 WT. The following applies: Homo sapiens, KMS-12-PE, C50 = concentration needed to reach 50% of the cellular viability. It is filed as cell-based. Summed up: as §1
The target in a further assay is BCLXL WT (Homo sapiens (Human), UniProt Q07817). Nature of the assay: TR-FRET competitive binding assay, BCLXL WT. As to conditions: for pKi: BCLXL WT, Ki determined from IC50, read-out: TR_FRET EKI BclxL; for TR_FRET EKI BCLxL/WT selectivty ratio: ratio Ki BCLxL / Ki BCL2 WT. Summed up:
as §2

pKi: −log10 of the molar value.

Sequence of BCLXL WT (Q07817 other isoform, or with tags, fused parts or gaps): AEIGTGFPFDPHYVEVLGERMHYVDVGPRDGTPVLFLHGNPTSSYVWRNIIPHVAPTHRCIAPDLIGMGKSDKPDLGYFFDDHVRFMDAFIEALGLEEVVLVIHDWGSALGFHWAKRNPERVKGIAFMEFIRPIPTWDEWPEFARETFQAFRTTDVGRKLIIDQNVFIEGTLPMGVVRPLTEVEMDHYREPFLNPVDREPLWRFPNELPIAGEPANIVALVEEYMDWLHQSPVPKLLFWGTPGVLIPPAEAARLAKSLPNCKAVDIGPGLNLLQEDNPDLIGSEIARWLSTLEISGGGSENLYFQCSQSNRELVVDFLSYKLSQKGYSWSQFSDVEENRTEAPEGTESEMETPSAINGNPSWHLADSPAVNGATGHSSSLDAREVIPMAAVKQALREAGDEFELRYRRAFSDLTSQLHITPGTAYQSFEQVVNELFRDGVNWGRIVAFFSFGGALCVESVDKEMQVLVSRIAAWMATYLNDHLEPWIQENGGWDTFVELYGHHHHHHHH

As to `COc1ncc(N(C(=O)c2cc(-c3cc4c(cc3C(=O)N3Cc5ccccc5C[C@H]3CN3CCCCC3)CN(C(=O)Cc3ccc(OCCN5CCOCC5)cc3F)CC4)n(C)c2C)c2ccc(O)cc2)cc1F` [Example 164, 5-[2-(2-{2-fluoro-4-[2-(morpholin-4-yl)ethoxy]phenyl}acetyl)-7-{[(3S)-3-(piperidin-1-ylmethyl)-3,4-dihydro-1H-isoquinolin-2-yl]carbonyl}-3,4-dihydro-1H-isoquinolin-6-yl]-N-(5-fluoro-6-methoxypyridin-3-yl)-N-(4-hydroxyphenyl)-1,2-dimethylpyrrole-3-carboxamide], the “Ratio (G101V/WT)” value in the assay with KMS-12-PE Bcl-2 G101V came to 9.1529. The results for the IC50 with KMS-12-PE Bcl-2 G101V and in the assay on KMS-12-PE Bcl-2 WT were 0.0497 µM and 0.0054 µM, respectively. Also, the pKi is 10.10 at BCL2 WT, 9.22 on BCL2 G101V [1], 9.89 on BCL2 D103Y and 8.03 on BCLXL WT. Also, in the assay with BCL2 G101V [2], the “TR_FRET EKI G101V/WT selectivty ratio” value came to 7.5. In addition, on BCLXL WT, the “TR_FRET EKI BCLxL/WT selectivty ratio” value was found to be 120.8.
Regarding `COc1ccc(N(C(=O)c2cc(-c3cc4c(cc3C(=O)N3Cc5ccccc5C[C@H]3CN3CCCCC3)CN(C(=O)Cc3ccc(OCCN5CCOCC5)cc3F)CC4)n(C)c2C)c2ccc(O)cc2)cn1` [Example 165, 5-[2-(2-{2-fluoro-4-[2-(morpholin-4-yl)ethoxy]phenyl}acetyl)-7-{[(3S)-3-(piperidin-1-ylmethyl)-3,4-dihydro-1H-isoquinolin-2-yl]carbonyl}-3,4-dihydro-1H-isoquinolin-6-yl]-N-(4-hydroxyphenyl)-N-(6-methoxypyridin-3-yl)-1,2-dimethylpyrrole-3-carboxamide], in the assay with KMS-12-PE Bcl-2 G101V, the “Ratio (G101V/WT)” value stood at 9.0393. The IC50 (in general, the concentration at which inhibition is half-maximal) in the assay on KMS-12-PE Bcl-2 G101V was found to be 0.0828 µM; in the assay on KMS-12-PE Bcl-2 WT it was 0.0092 µM. For the same molecule, the pKi at BCL2 WT is 10.40; at BCL2 G101V [1] it was 9.10; on BCL2 D103Y, 9.89; on BCLXL WT it was 8.00. Also, the “TR_FRET EKI G101V/WT selectivty ratio” value with BCL2 G101V [2] stood at 21.1. For the same molecule, the “TR_FRET EKI BCLxL/WT selectivty ratio” value on BCLXL WT is listed as 277.8.
`Cc1c(N(C(=O)c2cc(-c3cc4c(cc3C(=O)N3Cc5ccccc5C[C@H]3CN3CCCCC3)CN(C(=O)Cc3ccc(OCCN5CCOC[C@H]5C)cc3F)CC4)n(C)c2C)c2ccc(O)cc2)cc(C#N)n1C` [Example 166, N-(5-cyano-1,2-dimethylpyrrol-3-yl)-5-{2-[2-(2-fluoro-4-{2-[(3R)-3-methylmorpholin-4-yl]ethoxy}phenyl)acetyl]-7-{[(3S)-3-(piperidin-1-ylmethyl)-3,4-dihydro-1H-isoquinolin-2-yl]carbonyl}-3,4-dihydro-1H-isoquinolin-6-yl}-N-(4-hydroxyphenyl)-1,2-dimethylpyrrole-3-carboxamide]: in the assay on KMS-12-PE Bcl-2 G101V, the “Ratio (G101V/WT)” value turned out to be 6.5639. In addition, the IC50 in the assay with KMS-12-PE Bcl-2 G101V is 0.0298 µM; in the assay with KMS-12-PE Bcl-2 WT, 0.0045 µM. The pKi on BCL2 WT was 10.40; on BCL2 G101V [1] it was 9.52; at BCL2 D103Y, 9.80; on BCLXL WT, 8.57. The “TR_FRET EKI G101V/WT selectivty ratio” value in the assay with BCL2 G101V [2] came out at 5.8. Besides, the “TR_FRET EKI BCLxL/WT selectivty ratio” value at BCLXL WT came out at 62.8.
Consider `COc1ccc(N(C(=O)c2cc(-c3cc4c(cc3C(=O)N3Cc5ccccc5C[C@H]3CN3CCCCC3)CN(C(=O)Cc3ccc(OCCN5CCOCC5)cc3F)CC4)n(C)c2C)c2ccc(O)cc2)cc1C#N` [Example 167, N-(3-cyano-4-methoxyphenyl)-5-[2-(2-{2-fluoro-4-[2-(morpholin-4-yl)ethoxy]phenyl}acetyl)-7-{[(3S)-3-(piperidin-1-ylmethyl)-3,4-dihydro-1H-isoquinolin-2-yl]carbonyl}-3,4-dihydro-1H-isoquinolin-6-yl]-N-(4-hydroxyphenyl)-1,2-dimethylpyrrole-3-carboxamide], for which the “Ratio (G101V/WT)” value with KMS-12-PE Bcl-2 G101V is 8.5769. In addition, the values for the IC50 in the assay on KMS-12-PE Bcl-2 G101V and with KMS-12-PE Bcl-2 WT were 0.0669 µM and 0.0078 µM, respectively. The pKi on BCL2 WT is 10.30; at BCL2 G101V [1], 9.52; on BCL2 D103Y, 9.82; at BCLXL WT, 8.08. The “TR_FRET EKI G101V/WT selectivty ratio” value with BCL2 G101V [2] came out at 6.5. On BCLXL WT, the “TR_FRET EKI BCLxL/WT selectivty ratio” value is recorded as 171.4.
Take `Cc1c(C(=O)N(c2ccc(O)cc2)c2ccc(OC(C)C)c(C#N)c2)cc(-c2cc3c(cc2C(=O)N2Cc4ccccc4C[C@H]2CN2CCCCC2)CN(C(=O)Cc2ccc(OCCN4CCOCC4)cc2F)CC3)n1C` [Example 168, N-(3-cyano-4-isopropoxyphenyl)-5-[2-(2-{2-fluoro-4-[2-(morpholin-4-yl)ethoxy]phenyl}acetyl)-7-{[(3S)-3-(piperidin-1-ylmethyl)-3,4-dihydro-1H-isoquinolin-2-yl]carbonyl}-3,4-dihydro-1H-isoquinolin-6-yl]-N-(4-hydroxyphenyl)-1,2-dimethylpyrrole-3-carboxamide]: in the assay on KMS-12-PE Bcl-2 G101V, the “Ratio (G101V/WT)” value turned out to be 7.4599. Also, the IC50 was 0.0558 µM with KMS-12-PE Bcl-2 G101V and 0.0075 µM in the assay on KMS-12-PE Bcl-2 WT. For the same molecule, the pKi is 9.96 at BCL2 WT, 9.30 at BCL2 G101V [1], 9.66 at BCL2 D103Y and 7.96 on BCLXL WT. Moreover, in the assay on BCL2 G101V [2], the “TR_FRET EKI G101V/WT selectivty ratio” value is recorded as 4.7. Besides, the “TR_FRET EKI BCLxL/WT selectivty ratio” value on BCLXL WT is given as 100.0.
As for `CCOC[C@@H]1Cc2ccccc2CN1C(=O)c1cc2c(cc1-c1cc(C(=O)N(c3ccc(O)cc3)c3cc(C#N)n(C)c3C)c(C)n1C)CCN(C(=O)Cc1ccc(OCCN3CCOCC3)cc1F)C2` [Example 169, N-(5-cyano-1,2-dimethyl-pyrrol-3-yl)-5-[7-[(3S)-3-(ethoxymethyl)-3,4-dihydro-1H-isoquinoline-2-carbonyl]-2-[2-[2-fluoro-4-(2-morpholinoethoxy)phenyl]acetyl]-3,4-dihydro-1H-isoquinolin-6-yl]-N-(4-hydroxyphenyl)-1,2-dimethyl-pyrrole-3-carboxamide], the “Ratio (G101V/WT)” value in the assay with KMS-12-PE Bcl-2 G101V is listed as 5.082. In addition, the IC50 came out at 0.0248 µM in the assay on KMS-12-PE Bcl-2 G101V and 0.0049 µM in the assay with KMS-12-PE Bcl-2 WT. The pKi is 10.05 at BCL2 WT, 9.40 at BCL2 G101V [1], 9.44 on BCL2 D103Y and 8.92 at BCLXL WT. Besides, in the assay on BCL2 G101V [2], the “TR_FRET EKI G101V/WT selectivty ratio” value is reported as 4.6. Moreover, the “TR_FRET EKI BCLxL/WT selectivty ratio” value at BCLXL WT came out at 12.8.
With `Cc1c(N(C(=O)c2cc(-c3cc4c(cc3C(=O)N3Cc5ccccc5C[C@H]3COCC3CC3)CN(C(=O)Cc3ccc(OCCN5CCOCC5)cc3F)CC4)n(C)c2C)c2ccc(O)cc2)cc(C#N)n1C` [Example 170, N-(5-cyano-1,2-dimethyl-pyrrol-3-yl)-5-[7-[(3S)-3-(cyclopropylmethoxymethyl)-3,4-dihydro-1H-isoquinoline-2-carbonyl]-2-[2-[2-fluoro-4-(2-morpholinoethoxy)phenyl]acetyl]-3,4-dihydro-1H-isoquinolin-6-yl]-N-(4-hydroxyphenyl)-1,2-dimethyl-pyrrole-3-carboxamide], the “Ratio (G101V/WT)” value in the assay with KMS-12-PE Bcl-2 G101V amounted to 6.4831. For the same molecule, the figures for the IC50 in the assay on KMS-12-PE Bcl-2 G101V and with KMS-12-PE Bcl-2 WT were 0.0306 µM and 0.0047 µM, respectively. Also, the pKi was 9.52 at BCL2 WT, 8.89 at BCL2 G101V [1], 8.97 at BCL2 D103Y and 8.35 on BCLXL WT. Besides, the “TR_FRET EKI G101V/WT selectivty ratio” value in the assay on BCL2 G101V [2] turned out to be 4.3. Moreover, on BCLXL WT, the “TR_FRET EKI BCLxL/WT selectivty ratio” value was found to be 15.0.
Regarding `Cc1c(N(C(=O)c2cc(-c3cc4c(cc3C(=O)N3Cc5ccccc5C[C@H]3CN3CCCC3)CN(C(=O)Cc3c(F)cc(OCCN5CCOCC5)cc3F)CC4)n(C)c2C)c2ccc(O)cc2)cc(C#N)n1C` [Example 171, N-(5-cyano-1,2-dimethyl-pyrrol-3-yl)-5-[2-[2-[2,6-difluoro-4-(2-morpholinoethoxy)phenyl]acetyl]-7-[(3S)-3-(pyrrolidin-1-ylmethyl)-3,4-dihydro-1H-isoquinoline-2-carbonyl]-3,4-dihydro-1H-isoquinolin-6-yl]-N-(4-hydroxyphenyl)-1,2-dimethyl-pyrrole-3-carboxamide], the “Ratio (G101V/WT)” value in the assay on KMS-12-PE Bcl-2 G101V was determined as 4.7109. The IC50 in the assay with KMS-12-PE Bcl-2 G101V is 0.0603 µM; with KMS-12-PE Bcl-2 WT it was 0.0128 µM. Also, the pKi is 10.70 on BCL2 WT, 9.70 at BCL2 G101V [1], 10.05 on BCL2 D103Y and 8.89 on BCLXL WT. Also, the “TR_FRET EKI G101V/WT selectivty ratio” value in the assay on BCL2 G101V [2] amounted to 7.1. The “TR_FRET EKI BCLxL/WT selectivty ratio” value at BCLXL WT stood at 61.9.

Source of the values: patent publication US20250179047A1, “5-[7-(3,4-DIHYDRO-1H-ISOQUINOLINE-2-CARBONYL)-1,2,3,4 TETRAHYDROISOQUINOLIN-6-YL]-1H-PYRROLE-3-CARBOXAMIDE DERIVATIVES, PHARMACEUTICAL COMPOSITIONS CONTAINING THEM AND THEIR USES AS PRO-APOPTOTIC AGENTS” (LES LABORATOIRES SERVIER, priority 2022, published 2025).
